Several values for one entry are separate records, joined by “and”; a condition that tells them apart may be missing. Identical values can stand only once. Like-named read-outs stand apart in the source and are kept apart here.
How the values were obtained:
[1] = Temperature effects on solvent/detergent components before and after 0.2 μm filtration (HPLC); type: physicochemical
Method: In order to evaluate the influence of a lower temperature on the mixing time of solvent/detergent components, 50 mL solvent/detergent solutions were prepared by adding 0.3% (v/v) TNBP, 1.0% (v/v) polyoxyethylene octyl phenyl ether (TRITON® X-100) and 0.3% (v/v) polysorbate 80 sorbitan monooleate (TWEEN® 80) and stirring at 4±2° C. for 10, 20, or 30 minutes. As the solvent/detergent solution already contained 0.1% polysorbate 80 sorbitan monooleate (TWEEN® 80), the final concentration for this compound was of 0.4%. The concentration of TNBP and polyoxyethylene octyl phenyl ether (TRITON® X-100) were determined simultaneously by using C18 RP-HPLC with a refractive index detector (RID). The concentration of polysorbate 80 sorbitan monooleate (TWEEN® 80) was determined by C1 RP-HPLC using an evaporative light scattering detector (ELSD). For the HPLC analysis of TNBP and polyoxyethylene octyl phenyl ether (TRITON® X-100), an isocratic elution is employed using 68% methanol in water. In the assay of polysorbate 80 sorbitan monooleate (TWEEN® 80), a gradient elution from 60% methanol in water to 100% methanol is used.
To evaluate the impact of the temperature toward a potential retention of solvent/detergent conponents during the filtration step, 50 mL solvent/detergent solutions were prepared by adding 0.3% (v/v) TNBP, 1.0% (v/v) polyoxyethylene octyl phenyl ether (TRITON® X-100) and 0.3% (v/v) polysorbate 80 sorbitan monooleate (TWEEN® 80), stirring at 4±2° C. for 30 minutes and the concentration of each component was measured as described above. The solvent/detergent solutions were then processed under three different temperature conditions: 22.5° C. with a warm up period of about 8 hours; 22.5° C. with a warm up period of about 2 hours; and 4° C. without any warm-up or preheating step. At the end of the incubation period, samples were filtrated through a 0.2 μm filter and TNBP, polyoxyethylene octyl phenyl ether (TRITON® X-100) and polysorbate 80 sorbitan monooleate (TWEEN® 80) concentrations were measured by HPLC.

polyoxyethylene octyl phenyl ether [TRITON X-100]
S/D component concentration after 0.2 μm filtration [1]: 1.00% and 0.90% and 1.10% | S/D component concentration after 0.2 μm filtration, Mean [1]: 1.03% and 0.97% and 1.00% | S/D component concentration before 0.2 μm filtration [1]: 0.80% and 1.00% | S/D component concentration before 0.2 μm filtration, Mean [1]: 1.00% and 0.93% | S/D component concentration: 1.2% and 1.1% | S/D component concentration, Mean: 1.2 ± 0.06%

polysorbate 80 sorbitan monooleate [Tween 80]
S/D component concentration after 0.2 μm filtration, Mean ([1]; 4° C./2 H, n = 3): 0.41% | S/D component concentration before 0.2 μm filtration, Mean ([1]; 4° C./2 H, n = 3): 0.40% | S/D component concentration after 0.2 μm filtration ([1]; 4° C./2 H, runs 1-3): 0.40% and 0.41% | S/D component concentration before 0.2 μm filtration ([1]; 4° C./2 H, runs 1-3): 0.38% and 0.40% and 0.42% | S/D component concentration after 0.2 μm filtration, Mean ([1]; 22.5° C./2 H, n = 3): 0.41% | S/D component concentration before 0.2 μm filtration, Mean ([1]; 22.5° C./2 H, n = 3): 0.41% | S/D component concentration after 0.2 μm filtration ([1]; 22.5° C./2 H, runs 1-3): 0.38% and 0.44% and 0.41% | S/D component concentration before 0.2 μm filtration ([1]; 22.5° C./2 H, runs 1-3): 0.41% and 0.42% | S/D component concentration after 0.2 μm filtration, Mean ([1]; 22.5° C./8 H, n = 3): 0.39% | S/D component concentration before 0.2 μm filtration, Mean ([1]; 22.5° C./8 H, n = 3): 0.38% | S/D component concentration after 0.2 μm filtration ([1]; 22.5° C./8 H, runs 1-3): 0.40% and 0.39% and 0.37% | S/D component concentration before 0.2 μm filtration ([1]; 22.5° C./8 H, runs 1-3): 0.33% and 0.39% and 0.42% | S/D component concentration, Mean (mean of 10, 20, 30 min stirring at 4±2° C.): 0.42 ± 0.02% | S/D component concentration (stirring at 4±2° C. for 10 min): 0.42% | S/D component concentration (stirring at 4±2° C. for 20 min): 0.40% | S/D component concentration (stirring at 4±2° C. for 30 min): 0.44%

From patent US20170327559A1, “VIRAL INACTIVATION USING IMPROVED SOLVENT-DETERGENT METHOD” (Baxalta Incorporated, priority 2010, published 2017)
